In patent publication US20130065818A1, “Arylamide Compounds And Compositions And Uses Thereof” (POLYMEDIX, priority 2006, published 2013):
Converted amounts (≈) assume the structure as drawn. Where two headings read alike, the source gives them in different places.

Tested on: S. aureus ATCC 27660
Test: MIC, control bacteria (Example 8)
Assay type: cell-based
Procedure: • Mueller-Hinton Broth in tubes was inoculated with 25 ocular isolates of Staphylococcus aureus fluoroquinolone-susceptible, Staphylococcus aureus fluoroquinolone-resistant, Staphylococcus epidermidis (Coagulase-negative Staphylococcus) fluoroquinolone-susceptible, Staphylococcus epidermidis (Coagulase-negative Staphylococcus) fluoroquinolone-resistant, Pseudomonas aeruginosa and Serratia marcescens, plus two controls (Staphylococcus aureus and E. coli) and incubated at 37° C. overnight on a shaker set at 250 rpm.
Control Bacteria—The two control bacteria (Staphylococcus aureus and E. coli) were treated as above.
Control Bacteria Set #1—this set of control bacteria were treated as the Streptococcus pneumoniae, Streptococcus viridans and Moraxella species (including Moraxella catarrhalis) test isolates above; the control bacteria underwent the same conditions as the test Streptococcus pneumoniae, Streptococcus viridans and Moraxella species (including Moraxella catarrhalis) isolates. This set of control bacteria was to determine whether there was a difference in the MICs by performing the MIC determinations in 2% lysed horse red blood cells with the standard method performed in Mueller-Hinton broth.
Control Bacteria Set #2—the control bacteria were added to 5 ml of Mueller-Hinton Broth without the 2% lysed horse red blood cells to achieve the standard inoculum concentration. This set of control bacteria is the normal control to determine whether the compounds are at the target MICs.
Control Bacteria Set #1—this set of control bacteria were treated as the Haemophilus influenzae test isolates above; the control bacteria underwent the same conditions as the test Haemophilus influenzae isolates. This set of control bacteria is to determine whether there was a difference in the MICs by performing the MIC determinations in HTM broth with the standard method performed in Mueller-Hinton broth.
Control Bacteria Set #2—the control bacteria were added to 5 ml of Mueller-Hinton Broth to achieve the standard inoculum concentration. This set of control bacteria is the normal control to determine whether the compounds are at the target MICs.
Ninety μl of the bacterial suspensions was dispensed in each well from column 1 to column 12. Each bacterial isolate was placed in one row of a 96 well polypropylene plate containing the test agents. The plates were placed on shaker at 15 minutes at room temperature, and then incubated at 37° C. overnight. MICs were determined visually as the lowest concentration of drug that inhibits visible bacterial growth.

[1] = Control Bacteria S. aureus ATCC 27660

N=C(N)NCCCCC(=O)Nc1cc(C(F)(F)F)cc(NC(=O)c2cc(C(=O)Nc3cc(C(F)(F)F)cc(NC(=O)CCCCNC(=N)N)c3O[C@@H]3CCNC3)ncn2)c1O[C@@H]1CCNC1 [Oligomer 4]
Decrease of activity by addition of 2% lysed horse red blood cells to Mueller-Hinton broth [1]: approximately 4 fold
Decrease of activity by use of HTM broth [1]: approximately 8 fold
MIC (Control Bacteria Set #1, run with Haemophilus influenzae MIC test, read-out: MIC): 4 µg/mL (≈ 4.27 µM)
MIC (S. aureus ATCC 27660): 0.098 µg/mL (≈ 0.105 µM)
MIC (S. aureus ATCC 27660, Control for MIC Test SA-FQR, first batch): 1 µg/mL (≈ 1.07 µM)
MIC (S. aureus ATCC 27660, Control for MIC Test SA-FQS, first batch): 2 µg/mL (≈ 2.13 µM)
MIC (S. aureus ATCC 27660, new batches, Control Only 1): 0.25 µg/mL (≈ 0.267 µM)
MIC (S. aureus ATCC 27660, new batches, Control Only 2): 0.25 µg/mL (≈ 0.267 µM)
MIC (S. aureus ATCC 27660, new batches, Control Only 3): 0.25 µg/mL (≈ 0.267 µM)
MIC (S. aureus ATCC 27660, new batches, Control Only 4): 0.5 µg/mL (≈ 0.534 µM)
MIC (Staphylococcus aureus, ATCC27660, Control Bacteria Set #1, run with Moraxella MIC test, read-out: MIC): 1 µg/mL (≈ 1.07 µM)
MIC (Staphylococcus aureus, ATCC27660, Control Only 1, read-out: MIC of control bacteria on day of MIC testing): 0.25 µg/mL
MIC (Staphylococcus aureus, ATCC27660, Control Only 2, read-out: MIC of control bacteria on day of MIC testing): 0.25 µg/mL
MIC (Staphylococcus aureus, ATCC27660, Control Only 3, read-out: MIC of control bacteria on day of MIC testing): 0.25 µg/mL
MIC (Staphylococcus aureus, ATCC27660, Control Only 4, read-out: MIC of control bacteria on day of MIC testing): 0.5 µg/mL
MIC (Staphylococcus aureus, ATCC27660, S. aureus ATCC 27660, Control Bacteria Set #1 (same conditions as test isolates), run with Streptococcus pneumoniae MIC test, read-out: MIC): 1 µg/mL (≈ 1.07 µM)
MIC (Staphylococcus aureus, ATCC27660, S. aureus ATCC 27660, Control Bacteria Set #1 (same conditions as test isolates), run with Streptococcus viridans group MIC test, read-out: MIC): 2 µg/mL (≈ 2.13 µM)
MIC (Staphylococcus aureus, ATCC27660, S. aureus ATCC 27660, Control Bacteria Set #2 (Mueller-Hinton Broth), run with Streptococcus pneumoniae MIC test, read-out: MIC): 0.25 µg/mL (≈ 0.267 µM)
MIC (Staphylococcus aureus, ATCC27660, S. aureus ATCC 27660, Control Bacteria Set #2 (Mueller-Hinton Broth), run with Streptococcus viridans group MIC test, read-out: MIC): 1 µg/mL (≈ 1.07 µM)
MIC (Staphylococcus aureus, ATCC27660, S. aureus ATCC 27660, control bacteria run with Pseudomonas aeruginosa MIC test, read-out: MIC): 0.5 µg/mL (≈ 0.534 µM)
MIC (Staphylococcus aureus, ATCC27660, S. aureus ATCC 27660, control bacteria run with S. aureus fluoroquinolone-resistant MIC test, read-out: MIC): 1 µg/mL (≈ 1.07 µM)
MIC (Staphylococcus aureus, ATCC27660, S. aureus ATCC 27660, control bacteria run with S. aureus fluoroquinolone-susceptible MIC test, read-out: MIC): 2 µg/mL (≈ 2.13 µM)
MIC (Staphylococcus aureus, ATCC27660, S. aureus ATCC 27660, control bacteria run with S. epidermidis fluoroquinolone-resistant MIC test, read-out: MIC): 0.25 µg/mL (≈ 0.267 µM)
MIC (Staphylococcus aureus, ATCC27660, S. aureus ATCC 27660, control bacteria run with S. epidermidis fluoroquinolone-susceptible MIC test, read-out: MIC): 0.25 µg/mL (≈ 0.267 µM)
MIC (Staphylococcus aureus, ATCC27660, S. aureus ATCC 27660, control bacteria run with Serratia marcescens MIC test, read-out: MIC): 0.25 µg/mL (≈ 0.267 µM)
MIC (Staphylococcus aureus, ATCC27660, S. aureus ATCC 27660, MIC previously obtained (target MIC), printed in parentheses, read-out: MIC for Control Bacteria within the parentheses): 0.098 µg/mL (≈ 0.105 µM)
MIC (Staphylococcus aureus, ATCC27660, S. aureus ATCC27660, read-out: MIC): 0.098 µg/mL (≈ 0.105 µM)
MIC (Staphylococcus aureus, ATCC27660, control for MIC test HI (Control Bacteria Set #2), read-out: MIC of control bacteria on day of MIC testing): 0.5 µg/mL
MIC (Staphylococcus aureus, ATCC27660, control for MIC test MS (Control Bacteria Set #2), read-out: MIC of control bacteria on day of MIC testing): 0.5 µg/mL
MIC (Staphylococcus aureus, ATCC27660, control for MIC test PA, read-out: MIC of control bacteria on day of MIC testing): 0.5 µg/mL
MIC (Staphylococcus aureus, ATCC27660, control for MIC test SA-FQR, read-out: MIC of control bacteria on day of MIC testing): 1 µg/mL
MIC (Staphylococcus aureus, ATCC27660, control for MIC test SA-FQS, read-out: MIC of control bacteria on day of MIC testing): 2 µg/mL
MIC (Staphylococcus aureus, ATCC27660, control for MIC test SE-FQR, read-out: MIC of control bacteria on day of MIC testing): 0.25 µg/mL
MIC (Staphylococcus aureus, ATCC27660, control for MIC test SE-FQS, read-out: MIC of control bacteria on day of MIC testing): 0.25 µg/mL
MIC (Staphylococcus aureus, ATCC27660, control for MIC test SM, read-out: MIC of control bacteria on day of MIC testing): 0.25 µg/mL
MIC (Staphylococcus aureus, ATCC27660, control for MIC test SP, read-out: MIC of control bacteria on day of MIC testing): 0.25 µg/mL
MIC (Staphylococcus aureus, ATCC27660, control for MIC test SV, read-out: MIC of control bacteria on day of MIC testing): 1 µg/mL
MIC (Staphylococcus aureus, ATCC27660, reference MIC printed in parentheses beside the day's control value, read-out: MIC for Control Bacteria (within the parentheses)): 0.098 µg/mL (≈ 0.105 µM)
